Patent publication US20250109140A1, “5-[5-(PIPERIDIN-4-YL)THIENO[3,2-C]PYRAZOL-2-YL]INDAZOLE DERIVATIVES AND RELATED COMPOUNDS AS MODULATORS FOR SPLICING NUCLEIC ACIDS AND FOR THE TREATMENT OF PROLIFERATIVE DISEASES” (REMIX THERAPUTICS INC., priority 2022, published 2025)
Counter-ions that a name gives are not always drawn. Like-named read-outs stand apart in the source and are kept apart here.

What was measured:
[1] = test system: HTT mRNA; test: Splicing RT-qPCR assay, HTT canonical (CJ) and alternative (AJ) junction mRNA; assay type: cell-based; details: Homo sapiens; for EC50: AC50 = 50% response in AJ mRNA increase
In short: (§1)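 Readout is RT-qPCR of CJ and AJ mRNA in lysates from A673 or K562 cells given an 11-point titration (top dose 10 uM final, DMSO at most 0.25%) for 24 hours. Data were normalized to GAPDH, GUSB or PPIA, then to DMSO.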

[2] = test system: MYB mRNA; test: Splicing RT-qPCR assay, MYB canonical (CJ) and alternative (AJ) junction mRNA; assay type: cell-based; details: Homo sapiens; for EC50: AC50 = 50% response in AJ mRNA increase
In short: as §1

[3] = test system: SMN2 mRNA; test: Splicing RT-qPCR gene panel, SMN2 canonical junction (CJ) mRNA; assay type: cell-based; details: Homo sapiens; Table 8; larger gene panel, decrease in CJ mRNA levels
In short: as §1

[4] = test system: Target C mRNA; test: Splicing RT-qPCR gene panel, Target C canonical junction (CJ) mRNA; assay type: cell-based; details: Homo sapiens; Table 8; larger gene panel, decrease in CJ mRNA levels
In short: as §1

[5] = test system: HiBiT-tagged MYB protein; test: HiBiT protein abundance assay, MYB (K562 HiBiT knock-in cells); assay type: cell-based, human; details: 24 hours treatment
Description: (§2) Compounds described herein were used to screen for effects on quantitative protein abundance using a HiBit assay system (Promega). Quantitative protein abundance was determined by measuring the protein levels of HiBit-tagged protein targets expressed in cell culture via luminescence using the Nano-Glo HiBiT Lytic Detection System, which uses a split complementation assay format to reconstitute NanoBiT enzyme to generate a luminescent signal. A protein abundance assay was developed such that endogenous protein targets could be modified with the HiBiT peptide tag and their abundance could be assessed after compound treatment. Briefly, K562 cell lines containing a HiBiT-modification were treated with various compounds described herein (e.g., compounds of Formulas (I), or (II)). After treatment for 24 hours, the protein abundance of a specific target was determined by measuring luminescence.
(§3) Cells were maintained in IMDM with 10% FBS. Before the assay, cells were diluted with […] growth media (IMDM+[…] media) and were seeded in a 384-well plate at a density of 10000 cells/well (for each cell line listed in Table 6). Each compound was prepared as a 10-point 3-fold serial dilution in DMSO with the top dose at a final concentration of […] in the well. Unmodified K562 cells were added at the previously specified density with DMSO to serve as an assay baseline and positive control (PC) and DMSO only with the respective modified cell lines was added to the negative control (NC) columns. Final DMSO concentration was kept at or below 0.25%. Treated cell plates were placed in an incubator at 37° C. with […] for 24 hours. After 24 hours, 25 μL of Complete HiflitLytic reagent was added to each well at room temperature (e.g. one plate requiring 10 mL Lytic Buffer, 100 μL LgBiT Protein, 200 μL Lytic Substrate), shaken for 5 minutes at 600 RPM, then left to sit for 10 minutes for signal to stabilize before reading on a Spark Cyto plate reader (Tecan) with a 500 ms measurement time.
(§4) To determine compound effects on protein abundance of each target in Table 6, the percent response for each respective cell line was calculated at each compound concentration as follows:
(§5) For the normalized response at each concentration, a four-parameter logistical regression was fit to the data and the response was interpolated at the 50% value to determine a concentration for protein abundance at 50% (IC50) the untreated control.

[6] = test system: HiBiT-tagged HTT protein; test: HiBiT protein abundance assay, HTT (K562 HiBiT knock-in cells); assay type: cell-based, human; details: 24 hours treatment
Description: as §2, §3, §4, §5

[7] = test system: K562 (human chronic myelogenous leukemia) cells; test: Cell viability, Cell Titer Glo 2.0 assay, K562 cells; assay type: cell-based; details: 72 hours
Description: Compounds described herein were screened for toxicity in K562 (human chronic myelogenous leukemia) and SH-SY5Y (human neuroblastoma) cells using a Cell Titer Glo 2.0 assay.
Cells were plated at 500 cells/well (K562 cells) in 45 μL of IMDM supplemented with 10% FBS in a 384-well opaque plate. Wells containing only medium were used as a blank control. Test compounds (e.g., compounds of Formula (I), (III), (IV), (V), or (VI)) were first serially diluted in DMSO then diluted 1:100 with IMDM+10% FBS. The final concentration of DMSO was 0.1% in each well. The cells were incubated for 72 hours at 37° C. and 5% CO2 before assaying with Cell Titer Glo 2.0 reagent.

[8] = test system: Target C; test: HiBiT protein abundance assay, Target C (K562 HiBiT knock-in cells); assay type: cell-based, human; details: 24 hours treatment
Description: • Promega Nano-Glo HiBiT Lytic Detection System (cat #N3030) • Corning 384-well TC-treated microplates (cat #3570) • Synthego Engineered Cells Knock-In Clones
as §3, §4, §5

[9] = Table 7, RT-qPCR, A673 or K562 cells, 24 hours treatment
[10] = Table 7, IC50 = 50% response in CJ mRNA decrease, RT-qPCR, A673 or K562 cells, 24 hours treatment, read-out: HTT CJ
[11] = Table 8, larger gene panel, decrease in CJ mRNA levels, read-out: HTT CJ IC50
[12] = Table 7, IC50 = 50% response in CJ mRNA decrease, RT-qPCR, A673 or K562 cells, 24 hours treatment, read-out: MYB CJ
[13] = Table 8, larger gene panel, decrease in CJ mRNA levels, read-out: MYB CJ IC50

Compound | EC50 [1, 9] | IC50 [1, 10] | IC50 [1, 11] | EC50 [2, 9] | IC50 [2, 12] | IC50 [2, 13] | IC50 [3] | IC50 [4] | IC50 [5] | IC50 [6] | IC50 [7] | IC50 [8]
Cc1c(O)c(-c2cc3cn(C4CCNCC4)nc3s2)cc2cn(C)nc12 [Compound 221] | > 10 µM | > 10 µM | > 10 µM | > 10 µM | > 10 µM | > 10 µM | > 10 µM | > 10 µM | 0.1 to 1 µM | 0.1 to 1 µM | 1 to 10 µM | 0.1 to 1 µM
Cn1cc2cc(-n3cc4nc(C5CCNCC5)sc4n3)cc(F)c2n1 [Compound 1109] | 1 to 10 µM | 1 to 10 µM | 1 to 10 µM | 1 to 10 µM | > 10 µM | > 10 µM | 1 to 10 µM | > 10 µM | 1 to 10 µM | 1 to 10 µM | > 10 µM | 1 to 10 µM
Cc1cn2cc(-n3cc4cc(C5CCNCC5)sc4n3)nc2c(C)n1 [Compound 227] | 1 to 10 µM | 0.1 to 1 µM | 0.1 to 1 µM | 1 to 10 µM | 1 to 10 µM | 1 to 10 µM | 0.1 to 1 µM | 1 to 10 µM | 1 to 10 µM | 0.1 to 1 µM | 1 to 10 µM | 1 to 10 µM
Cc1cn2cc(-c3cc4cn(C5CCNCC5)nc4s3)ncc2n1 [Compound 223] | 1 to 10 µM | 1 to 10 µM | 1 to 10 µM | 1 to 10 µM | 1 to 10 µM | 1 to 10 µM | 0.1 to 1 µM | 1 to 10 µM | 1 to 10 µM | 1 to 10 µM | 1 to 10 µM | 1 to 10 µM
Cc1cn2nc(-n3cc4sc(C5CCNCC5)cc4n3)cc2c(C)n1 [Compound 171] | 0.1 to 1 µM | 0.1 to 1 µM | 0.1 to 1 µM | 1 to 10 µM | 1 to 10 µM | 1 to 10 µM | 0.1 to 1 µM | 1 to 10 µM | 0.1 to 1 µM | 0.1 to 1 µM | 1 to 10 µM | 0.1 to 1 µM
Cn1cc2cc(-c3cc4cn(C5CCNCC5)nc4s3)ccc2n1 [Compound 207] | 0.1 to 1 µM | 0.1 to 1 µM | 0.1 to 1 µM | 1 to 10 µM | 1 to 10 µM | 1 to 10 µM | < 0.1 µM | 1 to 10 µM | 1 to 10 µM | < 0.1 µM | 1 to 10 µM | 0.1 to 1 µM
Cn1cc2cc(-c3cc4cn([C@@H]5CCNC5)nc4s3)cc(F)c2n1 [Compound 160, (R)-5-(7-fluoro-2-methyl-2H-indazol-5-yl)-2-(pyrrolidin-3-yl)-2H-thieno[2,3-c]pyrazole hydrochloride] | 1 to 10 µM | 1 to 10 µM | 1 to 10 µM | 1 to 10 µM | 1 to 10 µM | 1 to 10 µM | 1 to 10 µM | > 10 µM | 1 to 10 µM | 1 to 10 µM | 1 to 10 µM | > 10 µM
CN(c1cc2nn(-c3ccc(-c4cn[nH]c4)cc3O)cc2s1)[C@@H]1C[C@H]2CC[C@@H](C1)N2 [Compound 148, 2-[5-[(1R,3R,5S)-8-azabicyclo[3.2.1]octan-3-yl(methyl)amino]thieno[3,2-c]pyrazol-2-yl]-5-(1H-pyrazol-4-yl)phenol] | 1 to 10 µM | 1 to 10 µM | 1 to 10 µM | 1 to 10 µM | > 10 µM | 1 to 10 µM | 1 to 10 µM | > 10 µM | 1 to 10 µM | 1 to 10 µM | 1 to 10 µM | 1 to 10 µM
Cn1cc2cc(-c3cc4cn(C5CNC5)nc4s3)cc(F)c2n1 [Compound 184] | 1 to 10 µM | 1 to 10 µM | 1 to 10 µM | 1 to 10 µM | 1 to 10 µM | 1 to 10 µM | 0.1 to 1 µM | > 10 µM | 1 to 10 µM | 1 to 10 µM | 1 to 10 µM | > 10 µM
Cc1nc2c(F)cc(-n3cc4cc(C5CCNCC5)sc4n3)cc2o1 [Compound 157] | 0.1 to 1 µM | 0.1 to 1 µM | 0.1 to 1 µM | 0.1 to 1 µM | 1 to 10 µM | 0.1 to 1 µM | < 0.1 µM | 0.1 to 1 µM | 0.1 to 1 µM | < 0.1 µM | 0.1 to 1 µM | < 0.1 µM
Cc1cn2nc(-c3cc4cn([C@H]5CCNC[C@@H]5F)nc4s3)cc(C)c2n1 (mixture of isomers) [Compound 212, 5-(2,8-dimethylimidazo[1,2-b]pyridazin-6-yl)-2-((1:1 mixture of 3S,4S and 3R,4R)-3-fluoropiperidin-4-yl)-2H-thieno[2,3-c]pyrazole] | 1 to 10 µM | 1 to 10 µM | 1 to 10 µM | > 10 µM | 1 to 10 µM | > 10 µM | 0.1 to 1 µM | > 10 µM | > 10 µM | 1 to 10 µM | 1 to 10 µM | > 10 µM
Cc1cn2cc(-n3cc4sc(C5CCNCC5)cc4n3)cc(C)c2n1 [Compound 173] | 1 to 10 µM | 1 to 10 µM | 1 to 10 µM | > 10 µM | > 10 µM | > 10 µM | 1 to 10 µM | > 10 µM |  |  | 1 to 10 µM | 
Cc1cn2nc(-n3cc4cc(C5CCNCC5)sc4n3)nc2c(C)n1 [Compound 163, 4-(2-{6,8-dimethyl-[1,2,4]triazolo [1,5-a]pyrazin-2-yl}thieno[2,3-c]pyrazol-5-yl)piperidine] | 1 to 10 µM | 1 to 10 µM | 1 to 10 µM | 1 to 10 µM | 1 to 10 µM | 1 to 10 µM | 1 to 10 µM | 1 to 10 µM | 1 to 10 µM | 1 to 10 µM | 1 to 10 µM | 1 to 10 µM
Cn1cc2cc(-c3cc4nn(C5CCNCC5)cc4s3)cc(F)c2n1 [Compound 121, 7-fluoro-2-methyl-5-[2-(piperidin-4-yl)thieno[3,2-c]pyrazol-5-yl]indazole] | 0.1 to 1 µM | < 0.1 µM | 0.1 to 1 µM | 0.1 to 1 µM | 0.1 to 1 µM | 0.1 to 1 µM | < 0.1 µM | < 0.1 µM | 0.1 to 1 µM | < 0.1 µM |  | < 0.1 µM
Cc1cn2nc(-n3cc4cc(C5CCNCC5)sc4n3)cc(C)c2n1 [Compound 110, 4-(2-[2,8-dimethylimidazo[1,2-b]pyridazin-6-yl]thieno[2,3-c]pyrazol-5-yl) piperidine] | 0.1 to 1 µM | 0.1 to 1 µM | 0.1 to 1 µM | 0.1 to 1 µM | 1 to 10 µM | 0.1 to 1 µM | < 0.1 µM |  | 1 to 10 µM | 1 to 10 µM | 1 to 10 µM | 1 to 10 µM
